Values of other authors as cited in patent publication US20230102999A1, “DEUTERATED NICLOSAMIDE” (First Wave Bio, Inc., priority 2020, published 2023).
Structures can show the parent of a compound that is named as a salt.

Legend:
[1] = at 20° C.

SMILES | water solubility ([1]; water) [µg/mL] | solubility in acetone (acetone) | solubility in ether, ethanol and chloroform (ether, ethanol and chloroform) | dissolves in distilled water ([1]; distilled water) [mg/L]
O=C(Nc1ccc([N+](=O)[O-])cc1Cl)c1cc(Cl)ccc1O [Niclosamide, 5-chloro-N-(2-chloro-4-nitrophenyl)-2-hydroxybenzamide] | 5 to 8 | soluble | sparingly soluble | –
O=C(Nc1ccc([N+](=O)[O-])cc1Cl)c1cc(Cl)ccc1O [ethanolamine salt, 5-chloro-salicyl-(2-chloro-4-nitro) anilide 2-aminoethanol salt] | – | – | – | 180 to 280
